The supplement of paper PMC10307832

How the values were obtained:
Test in all cases: relative viability (nuclei count vs DMSO), 5 days (fraction); higher = more cells survive
Quizartinib + Luminespib = compound: CC(C)(C)c1cc(NC(=O)Nc2ccc(-c3cn4c(n3)sc3cc(OCCN5CCOCC5)ccc34)cc2)no1 [Quizartinib] + CCNC(=O)c1noc(-c2cc(C(C)C)c(O)cc2O)c1-c1ccc(CN2CCOCC2)cc1 [Luminespib] (partner 0.01 µM)
In short: (§1)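 Dosing by pin tool came one day after lung cancer cell lines were seeded in 1536-well plates, using either one drug or a fixed anchor-drug dose plus five library-drug doses (not always all listed) in √10 steps. After 5 days, nuclei were counted on 4× images. Relative viability is treated-well nuclei count divided by vehicle-well nuclei count, and values are medians of duplicate plates.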

Quizartinib + Phenformin = compound: CC(C)(C)c1cc(NC(=O)Nc2ccc(-c3cn4c(n3)sc3cc(OCCN5CCOCC5)ccc34)cc2)no1 [Quizartinib] + N=C(N)NC(=N)NCCc1ccccc1 [Phenformin] (partner 250 µM)
In short: as §1

Quizartinib + Decitabine = compound: CC(C)(C)c1cc(NC(=O)Nc2ccc(-c3cn4c(n3)sc3cc(OCCN5CCOCC5)ccc34)cc2)no1 [Quizartinib] + Nc1ncn([C@H]2C[C@H](O)[C@@H](CO)O2)c(=O)n1 [Decitabine] (partner 2 µM)
In short: as §1

YM155 + Linsitinib = compound: COCC[n+]1c2c(n(Cc3cnccn3)c1C)C(=O)c1ccccc1C2=O [YM155] + C[C@]1(O)C[C@@H](c2nc(-c3ccc4ccc(-c5ccccc5)nc4c3)c3c(N)nccn32)C1 [Linsitinib] (partner 1 µM)
In short: as §1

Cell Line | relative viability (Quizartinib + Luminespib; first compound 0.001 µM) | relative viability (Quizartinib + Luminespib; first compound 0.003162 µM) | relative viability (Quizartinib + Luminespib; first compound 0.01 µM) | relative viability (Quizartinib + Luminespib; first compound 0.1 µM) | relative viability (Quizartinib + Phenformin; first compound 0.003162 µM) | relative viability (Quizartinib + Phenformin; first compound 0.01 µM) | relative viability (Quizartinib + Phenformin; first compound 0.03162 µM) | relative viability (Quizartinib + Phenformin; first compound 0.1 µM) | relative viability (Quizartinib + Decitabine; first compound 0.001 µM) | relative viability (Quizartinib + Decitabine; first compound 0.003162 µM) | relative viability (Quizartinib + Decitabine; first compound 0.01 µM) | relative viability (Quizartinib + Decitabine; first compound 0.03162 µM) | relative viability (Quizartinib + Decitabine; first compound 0.1 µM) | relative viability (YM155 + Linsitinib; first compound 0.002 µM) | relative viability (YM155 + Linsitinib; first compound 0.006325 µM) | relative viability (YM155 + Linsitinib; first compound 0.02 µM) | relative viability (YM155 + Linsitinib; first compound 0.06325 µM) | relative viability (Quizartinib + Luminespib; first compound 0.03162 µM) | relative viability (Quizartinib + Phenformin; first compound 0.001 µM)
NCI-H23 | 0.209 | 0.245 | 0.219 | 0.185 | 0.724 | 0.771 | 0.727 | 0.841 | 0.267 | 0.266 | 0.33 | 0.278 | 0.317 | 0.54 | 0.595 | 0.598 | 0.295 |  | 
NCI-H322M | 0.81 | 0.92 | 0.944 | 0.895 | 0.827 | 0.837 | 0.547 | 0.744 | 0.685 | 0.653 | 0.681 | 0.72 | 0.763 | 0.762 | 0.929 | 0.917 | 1.01 | 0.448 | 0.541
NCI-H522 | 1.11 | 1.07 | 0.892 | 1.47 | 0.652 | 0.645 | 0.622 | 0.542 | 0.684 | 0.7 | 0.67 | 0.603 | 0.618 |  |  |  |  | 1.1 | 0.591
NCI-H1299 |  |  |  |  |  |  |  |  |  |  |  |  |  | 1 | 0.962 | 1 | 0.88 |  | 
NCI-H1563 | 0.516 | 0.499 | 0.528 | 0.584 | 0.708 | 0.656 | 0.514 | 0.533 |  |  |  |  |  | 1.26 | 1.38 | 1.24 | 1.28 | 0.551 | 0.648
NCI-H1623 | 0.38 | 0.564 | 0.455 | 0.408 | 0.645 | 0.599 | 0.595 | 0.634 |  |  |  |  |  |  |  |  |  | 0.57 | 0.455
NCI-H1650 | 0.185 | 0.182 | 0.19 | 0.172 | 0.585 | 0.382 |  | 0.417 | 0.345 | 0.364 | 0.458 |  | 0.393 |  |  |  |  |  | 0.418
NCI-H1703 |  |  |  |  |  |  |  |  |  |  |  |  |  | 0.474 | 1.25 | 0.622 | 0.411 |  | 
NCI-H2170 | 0.65 | 0.741 | 0.838 | 0.737 | 0.432 | 0.403 | 0.436 | 0.378 | 0.424 | 0.466 | 0.468 | 0.578 | 0.44 |  |  |  |  | 0.769 | 0.415
NCI-H2228 | 0.176 | 0.153 | 0.139 | 0.159 | 0.228 | 0.52 | 0.345 | 0.26 |  |  |  |  |  | 0.84 | 0.628 | 0.917 | 0.825 | 0.214 | 0.242
NCI-H2342 | 0.807 | 0.752 | 0.696 | 0.762 | 0.629 | 0.539 | 0.616 | 0.688 | 0.749 | 0.763 | 0.678 | 0.729 | 0.724 |  |  |  |  | 0.759 | 0.595
SW 900 | 0.159 | 0.188 |  | 0.161 | 0.685 |  | 0.586 | 0.72 | 0.42 | 0.392 | 0.422 | 0.372 | 0.336 |  |  |  |  | 0.153 | 0.618
